Laboratory results: patent US7084158B2, “Substituted propargylamines” (Bayer Cropscience S.A., priority 2001, dated 2006)

system: Diabrotica undecimpunctata; experiment: Example C: corn rootworm eggs with maize corn, mortality; type: in vivo; set-up: key: compounds were considered to be active when, at a concentration of 500 ppm or less, they had an activity on the harmful organisms of 50% or more; conditions: 500 ppm or less; 4-5-day-old eggs; after 6 days

Compound | effect on the eggs and hatched larvae (mortality)
CC1CCN(CC#Cc2ccc(Br)c(F)c2)CC1 [Example 207] | active
Cl.FC(F)(F)c1cc(C#CCN2CCC(C(F)(F)F)CC2)nc(C(F)(F)F)c1 [Example 1050] | active
CC1CCN(CC#Cc2ccc(C(F)(F)F)cn2)CC1 [Example 58] | active
FC(F)(F)c1cc(C#CCN2CCCC(C(F)(F)F)C2)cc(C(F)(F)F)c1 (stereo not drawn) [Example 281] | active
CC1CCN(CC#Cc2cc(C(F)(F)F)cc(C(F)(F)F)c2)CC1C (stereo not drawn) [Example 267] | active
COc1ccc(-c2ccc(C#CCN3CCC(C)CC3)cc2F)cc1 [Example 231] | active
FC(F)(F)c1cccc(C#CCN2CCCC(C(F)(F)F)C2)c1 (stereo not drawn) [Example 297] | active
CC1CCCN(CC#Cc2cc(C(F)(F)F)cc(C(F)(F)F)c2)C1 (stereo not drawn) [Example 31] | active
Cc1cc(C#CCN2CCC(C)CC2)cc(C(F)(F)F)c1.Cl [Example 1069] | active
Cc1cc(C)nc(C#CCN2CCC(C)CC2)c1 [Example 201] | active
CC1CCN(CC#Cc2cc(C(F)(F)F)cc(C(F)(F)F)c2)CC1.O=C(O)/C=C\C(=O)O [Example 1056] | active
CC1CCN(CC#Cc2c(Cl)cc(C(F)(F)F)cc2Cl)CC1 [Example 295] | active
FC(F)(F)c1cc(C#CCN2CCCC(C(F)(F)F)C2)nc(C(F)(F)F)c1 (stereo not drawn) [Example 282] | active
FC(F)(F)c1cc(C#CCN2CCC(C(F)(F)F)CC2)cc(C(F)(F)F)c1 [Example 205] | active
CCS(=O)(=O)O.Cc1cc(C(F)(F)F)cc(C#CCN2CCC(C)CC2)n1 [Example 1064] | active
CC1(C)CCCN(CC#Cc2cc(C(F)(F)F)cc(C(F)(F)F)c2)C1.Cl [Example 1001] | active

system: Aedes aegypti; experiment: Example AG: microtiter plate, yellow fever mosquito larvicidal activity; type: in vivo; set-up: key: compounds were considered to be active when, at a concentration of 500 ppm or less, they had an activity on the harmful organisms of 50% or more; conditions: 500 ppm or less, after 3 days

Compound | larvicidal activity
CC1CCN(CC#Cc2ccc(-c3ccc(C(F)(F)F)cc3)s2)CC1 [Example 242] | active
CC1CCN(CC#Cc2cccc(-c3cc(C(F)(F)F)cc(C(F)(F)F)c3)c2)CC1 [Example 218] | active
Cc1cc(C#CCN2CCC(C)CC2)sc1Br [Example 213] | active
CC1CCN(CC#Cc2cc(C(F)(F)F)cc(C(F)(F)F)c2)CC1C (stereo not drawn) [Example 267] | active
Cc1ccc(-c2ccc(C#CCN3CCC(C)CC3)cc2F)cc1 [Example 248] | active
CC1CCN(CC#Cc2ccc(-c3ccc(OC(F)(F)F)cc3)s2)CC1 [Example 244] | active
CC1CCN(CC#Cc2ccc(C#N)c(Cl)c2)CC1 [Example 289] | active
CCc1ccc(C#CCN2CCC(C)CC2)cc1F [Example 254] | active
Cc1cc(C#CCN2CCC(C)CC2)cc(C(F)(F)F)c1.Cl [Example 1069] | active
CC1CCN(CC#Cc2ccc(Cl)s2)CC1 [Example 216] | active
CC1CCN(CC#Cc2ccc(C=NOCc3ccccc3)s2)CC1 [Example 292] | active
CC1CCN(CC#Cc2ccc(Br)s2)CC1 [Example 215] | active
Cc1ccc(C#CCN2CCC(C)CC2)s1 [Example 293] | active
CC1CCN(CC#Cc2ccc(-c3ccc(F)c(Cl)c3)c(F)c2)CC1 [Example 249] | active
CC1CCN(CC#Cc2cccc(-c3cccc(Cl)c3)c2)CC1 [Example 219] | active
CCS(=O)(=O)O.Cc1cc(C(F)(F)F)cc(C#CCN2CCC(C)CC2)n1 [Example 1064] | active
Cc1cc(C)nc(C#CCN2CCC(C)CC2)c1 [Example 294] | active

system: Heliothis virescens; experiment: Example B: tobacco budworm eggs on filter paper/insect diet, mortality; type: in vivo; set-up: key: compounds were considered to be active when, at a concentration of 500 ppm or less, they had an activity on the harmful organisms of 50% or more; conditions: 500 ppm or less; 24-hour-old eggs dipped, diet treated; after 6 days

Compound | effect on the eggs and hatched larvae (mortality)
CC1CCN(CC#Cc2ccc(-c3cc(C(F)(F)F)ccc3Cl)cc2)CC1 [Example 171] | active
CC1CCN(CC#Cc2cccc(-c3cnc(Cl)c(Cl)c3)c2)CC1 [Example 224] | active
Cc1ccc(-c2sc(C#CCN3CCC(C)CC3)cc2C)cc1 [Example 236] | active
Cc1cc(C#CCN2CCC(C)CC2)sc1-c1ccc(Cl)cc1 [Example 239] | active
CC1CCN(CC#Cc2ccnc(C(F)(F)F)n2)CC1 [Example 167] | active
CCOC(=O)c1cccc(-c2ccc(C#CCN3CCC(C)CC3)cc2)c1 [Example 178] | active
CC1CCN(CC#Cc2ccc(-c3ccc(C(F)(F)F)cc3)cc2)CC1 [Example 172] | active
CC1CCN(CC#Cc2ccc(Br)c(F)c2)CC1 [Example 207] | active
CC1CCN(CC#Cc2ccc(-c3ccccc3Cl)cc2)CC1 [Example 174] | active
Cc1cc(Cl)ccc1C#CCN1CCC(C)CC1 [Example 100] | active
CC1CCN(CC#Cc2ccc(Cl)cc2Cl)CC1.Cl [Example 1000] | active
CC1CCN(CC#Cc2ccc(-c3ccc(OC(F)(F)F)cc3)s2)CC1 [Example 244] | active
CC1CCN(CC#Cc2ccc(C#N)c(Cl)c2)CC1 [Example 289] | active
CC1CCN(CC#Cc2cccc(-c3ccc(C(F)(F)F)cc3)c2)CC1 [Example 217] | active
Cc1c(Cl)cccc1C#CCN1CCC(C)CC1 [Example 97] | active
CC1CCN(CC#Cc2ccc(F)c(Cl)c2)CC1 [Example 124] | active
CC1CCN(CC#Cc2cccc(-c3cccc4ccccc34)c2)CC1 [Example 221] | active
CC1CCN(CC#Cc2cc(Cl)cc(Cl)c2)CC1.Cl [Example 1011] | active
CC1CCN(CC#Cc2ccc(-c3cc(F)cc([N+](=O)[O-])c3)cc2)CC1 [Example 177] | active
CC1CCN(CC#Cc2ccc(-c3cccc(Cl)c3)s2)CC1 [Example 247] | active
CCc1ccc(C#CCN2CCC(C)CC2)cc1F [Example 254] | active
CC1CCN(CC#Cc2ccc(Cl)s2)CC1 [Example 216] | active
Cc1cc(C)nc(C#CCN2CCC(C)CC2)c1 [Example 201] | active
Cc1cc(C#CCN2CCC(C)CC2)sc1-c1ccc(F)cc1 [Example 232] | active

Compound | effect on the eggs and hatched larvae (mortality)
CC1CCN(CC#Cc2ccc(C=NOCc3ccccc3)s2)CC1 [Example 292] | active
CC1CCN(CC#Cc2ccc(Br)s2)CC1 [Example 215] | active
Cc1ccc(-c2ccc(C#CCN3CCC(C)CC3)s2)cc1 [Example 241] | active
CC1CCN(CC#Cc2cc(C(F)(F)F)cc(C(F)(F)F)c2)CC1.O=C(O)/C=C\C(=O)O [Example 1056] | active
CC1CCN(CC#Cc2ccc(-c3cccc(C(F)(F)F)c3)s2)CC1 [Example 229] | active
CC1CCN(CC#Cc2ccc(F)c(C(F)(F)F)c2)CC1 [Example 285] | active
CC1CCN(CC#Cc2c(Cl)cc(C(F)(F)F)cc2Cl)CC1 [Example 295] | active
Cc1cccc(-c2ccc(C#CCN3CCC(C)CC3)s2)c1 [Example 246] | active
Cc1ccc(C#CCN2CCC(C)CC2)cc1C(F)(F)F [Example 284] | active
CC1CCN(CC#Cc2cccc(-c3ccc(Cl)cc3)c2)CC1 [Example 222] | active
CC1CCN(CC#Cc2cccc(-c3ccc(C#N)cc3)c2)CC1 [Example 226] | active
CC1CCN(CC#Cc2ccc(-c3cccc(C(F)(F)F)c3)cc2)CC1 [Example 182] | active
CC1CCN(CC#Cc2ccc(-c3cc(C(F)(F)F)cc(C(F)(F)F)c3)s2)CC1 [Example 271] | active
CC1CCN(CC#Cc2ccc(-c3ccc(Cl)cc3Cl)cc2)CC1 [Example 176] | active
CC1CCN(CC#Cc2ccc(-c3ccccc3)s2)CC1 [Example 240] | active
CC1CCN(CC#Cc2ccc(C=NOCc3ccc(Cl)cc3Cl)s2)CC1 [Example 296] | active
COc1ccc(-c2ccc(C#CCN3CCC(C)CC3)cc2)cc1 [Example 181] | active
CC1CCN(CC#Cc2cccc(C(F)(F)F)c2)CC1 [Example 24] | active
CC1CCN(CC#Cc2cccc(-c3ccc(Cl)s3)c2)CC1 [Example 225] | active
CC1CCN(CC#Cc2ccc(-c3cccc(Cl)c3)cc2)CC1 [Example 173] | active
CC1CCN(CC#Cc2ccc(-c3cc(Cl)cc(Cl)c3)s2)CC1 [Example 273] | active
CC1CCN(CC#Cc2cc(Cl)c(OC(F)(F)C(F)Cl)c(Cl)c2)CC1 (stereo not drawn) [Example 283] | active
CC1CCN(CC#Cc2ccc(-c3ccccc3)cc2)CC1 [Example 119] | active
CC(=O)c1ccc(C#CCN2CCC(C)CC2)s1 [Example 214] | active
